{"source": "patent US20130096103A1", "about": "“IMIDAZOQUINOLINE COMPOUNDS” (NOVARTIS VACCINES & DIAGNOSTICS, INC., priority 2004, published 2013)", "key": {"BALB/c mice [1]": {"test_system": "BALB/c mice", "test": "In vivo adjuvant study: Env-specific serum IgG2a ELISA", "settings": "vaccinated day 0 and 28, sera 6-7 d after 2nd vaccination", "text": "(§1) In phosphate-buffered saline (PBS), 25 micrograms gp120dV2EnvSF162 antigen (recombinant gp120 protein derived from sequence of HIV-1 strain SF162—the V2 domain was deleted; Pharm Res. 2004 Dec. 21(12):2148-52) as mixed with 50 microliters of MF59 adjuvant, followed the by the addition of 0, 1, 5, or 25 micrograms of a small molecule immune potentiator (SMIP) and adjusted to 100 microliters with PBS. 50 microliters of the solution was subsequently injected into both the left and right tibialis anterior muscles of female BALB/c mice (Day 0), for a total volume of 100 microliters per mouse. Four weeks later (Day 28), 50 microliters of the solution was again injected into both the left and right tibialis anterior muscles of the mouse. Seven days after the second vaccination ([…]), serum samples were collected, and a day later (day 35) spleens were removed. Serum samples were assayed by Env-specific serum IgG2a ELISA and Env-specific serum IgG1 ELISA. Spleen samples were assayed by Env-specific, cytokine-producing splenic CD4 and CD8 T cells.\n(§2) BALB/c mise were immunized 2× with HIV gp120 formulated in MF59 +/− the indicated SMIPs (25 μg/ml). CpG 1826 (25 μg/ml) was used as a positive control. […] post-second serum was collected from the immunized mice and the anti-gp120-specific serum IgG2a (FIG. 4A) and IgG1 (FIG. 4B) geometric mean titers (GMT) were determined. In addition, spleens were also harvested from the immunized mice and ex vivo anti-gp120-specific T cell responses (FIG. 4C) were determined by intracellular cytokine staining for IL-2 and IFN-g. Results are percentage of antigen-specific T cells expressing the indicated cytokine."}, "BALB/c mice [2]": {"test_system": "BALB/c mice", "test": "In vivo adjuvant study: Env-specific serum IgG1 ELISA", "settings": "vaccinated day 0 and 28, sera 6-7 d after 2nd vaccination", "text": "as §1, §2"}, "BALB/c mice [3]": {"test_system": "BALB/c mice", "test": "In vivo adjuvant study: Env-specific cytokine-producing splenic CD4 and CD8 T cells", "settings": "spleens 6-7 d after 2nd vaccination", "text": "as §1, §2"}, "[4]": {"settings": "Pope et al. Cellular Immunology 162: 333-339 (1995); cited from earlier work"}, "[5]": {"settings": "1 μg added to gp120dV2/MF59 base vaccine"}, "[6]": {"settings": "5 μg added to gp120dV2/MF59 base vaccine"}, "[7]": {"settings": "25 μg added to gp120dV2/MF59 base vaccine"}}}
{"compound": "CCCSc1nc2c(N)nc3ccccc3c2n1CC(C)C", "note": "[Example 11, 1-(2-methylpropyl)-2-(propylthio)-1H-imidazo[4,5-c]quinolin-4-amine]", "values": [{"measurement": "Env-spec IgG2a titer, Geo mean", "setting": "BALB/c mice [1]; [5]", "result": 512}, {"measurement": "Env-spec IgG2a titer, Geo mean", "setting": "BALB/c mice [1]; [6]", "result": 2922}, {"measurement": "Env-spec IgG2a titer, Geo mean", "setting": "BALB/c mice [1]; [7]", "result": 6507}, {"measurement": "Env-spec IgG1 titer, Geo mean", "setting": "BALB/c mice [2]; [5]", "result": 35177}, {"measurement": "Env-spec IgG1 titer, Geo mean", "setting": "BALB/c mice [2]; [6]", "result": 33477}, {"measurement": "Env-spec IgG1 titer, Geo mean", "setting": "BALB/c mice [2]; [7]", "result": 34199}, {"measurement": "Env-spec CD4 (%) IFN-γ+", "setting": "BALB/c mice [3]; [5]", "result": 0.04, "unit": "%"}, {"measurement": "Env-spec CD4 (%) IL-2+", "setting": "BALB/c mice [3]; [5]", "result": 0.17, "unit": "%"}, {"measurement": "Env-spec CD8 (%) IFN-γ+", "setting": "BALB/c mice [3]; [5]", "result": 0.08, "unit": "%"}, {"measurement": "Env-spec CD8 (%) IL2+", "setting": "BALB/c mice [3]; [5]", "result": 0.17, "unit": "%"}, {"measurement": "Env-spec CD4 (%) IFN-γ+", "setting": "BALB/c mice [3]; [6]", "result": 0.04, "unit": "%"}, {"measurement": "Env-spec CD4 (%) IL-2+", "setting": "BALB/c mice [3]; [6]", "result": 0.42, "unit": "%"}, {"measurement": "Env-spec CD8 (%) IFN-γ+", "setting": "BALB/c mice [3]; [6]", "result": 0.19, "unit": "%"}, {"measurement": "Env-spec CD8 (%) IL2+", "setting": "BALB/c mice [3]; [6]", "result": 0.22, "unit": "%"}, {"measurement": "Env-spec CD4 (%) IFN-γ+", "setting": "BALB/c mice [3]; [7]", "result": 0.04, "unit": "%"}, {"measurement": "Env-spec CD4 (%) IL-2+", "setting": "BALB/c mice [3]; [7]", "result": 0.42, "unit": "%"}, {"measurement": "Env-spec CD8 (%) IFN-γ+", "setting": "BALB/c mice [3]; [7]", "result": 0.18, "unit": "%"}, {"measurement": "Env-spec CD8 (%) IL2+", "setting": "BALB/c mice [3]; [7]", "result": 0.22, "unit": "%"}]}
{"compound": "CCCN(C)c1nc2c(N)nc3ccccc3c2n1CC(C)(C)O", "note": "[Example 19, 1-{4-amino-2-[methyl(propyl)amino]-1H-imidazo[4,5-c]quinolin-1-yl}-2-methylpropan-2-ol]", "values": [{"measurement": "Env-spec IgG2a titer, Geo mean", "setting": "BALB/c mice [1]; [5]", "result": 1215}, {"measurement": "Env-spec IgG2a titer, Geo mean", "setting": "BALB/c mice [1]; [6]", "result": 10104}, {"measurement": "Env-spec IgG2a titer, Geo mean", "setting": "BALB/c mice [1]; [7]", "result": 18733}, {"measurement": "Env-spec IgG1 titer, Geo mean", "setting": "BALB/c mice [2]; [5]", "result": 30536}, {"measurement": "Env-spec IgG1 titer, Geo mean", "setting": "BALB/c mice [2]; [6]", "result": 29502}, {"measurement": "Env-spec IgG1 titer, Geo mean", "setting": "BALB/c mice [2]; [7]", "result": 38255}, {"measurement": "Env-spec CD4 (%) IFN-γ+", "setting": "BALB/c mice [3]; [5]", "result": 0.07, "unit": "%"}, {"measurement": "Env-spec CD4 (%) IL-2+", "setting": "BALB/c mice [3]; [5]", "result": 0.14, "unit": "%"}, {"measurement": "Env-spec CD8 (%) IFN-γ+", "setting": "BALB/c mice [3]; [5]", "result": 0.21, "unit": "%"}, {"measurement": "Env-spec CD8 (%) IL2+", "setting": "BALB/c mice [3]; [5]", "result": 0.14, "unit": "%"}, {"measurement": "Env-spec CD4 (%) IFN-γ+", "setting": "BALB/c mice [3]; [6]", "result": 0.04, "unit": "%"}, {"measurement": "Env-spec CD4 (%) IL-2+", "setting": "BALB/c mice [3]; [6]", "result": 0.40, "unit": "%"}, {"measurement": "Env-spec CD8 (%) IFN-γ+", "setting": "BALB/c mice [3]; [6]", "result": 0.35, "unit": "%"}, {"measurement": "Env-spec CD8 (%) IL2+", "setting": "BALB/c mice [3]; [6]", "result": 0.37, "unit": "%"}, {"measurement": "Env-spec CD4 (%) IFN-γ+", "setting": "BALB/c mice [3]; [7]", "result": 0.29, "unit": "%"}, {"measurement": "Env-spec CD4 (%) IL-2+", "setting": "BALB/c mice [3]; [7]", "result": 0.76, "unit": "%"}, {"measurement": "Env-spec CD8 (%) IFN-γ+", "setting": "BALB/c mice [3]; [7]", "result": 0.07, "unit": "%"}, {"measurement": "Env-spec CD8 (%) IL2+", "setting": "BALB/c mice [3]; [7]", "result": 0.10, "unit": "%"}]}
{"compound": "C=CCn1c(=O)n([C@@H]2O[C@H](CO)[C@@H](O)[C@H]2O)c2nc(N)[nH]c(=O)c21", "note": "[Loxoribine]", "values": [{"measurement": "concentration causing useful production of TNF-α", "setting": "[4]", "result": 300, "unit": "µM"}]}
{"compound": "ODN-1826 [reference compound]", "values": [{"measurement": "Env-spec IgG2a titer, Geo mean", "setting": "BALB/c mice [1]; [7]", "result": 201306}, {"measurement": "Env-spec IgG1 titer, Geo mean", "setting": "BALB/c mice [2]; [7]", "result": 30188}, {"measurement": "Env-spec CD4 (%) IFN-γ+", "setting": "BALB/c mice [3]; [7]", "result": 0.32, "unit": "%"}, {"measurement": "Env-spec CD4 (%) IL-2+", "setting": "BALB/c mice [3]; [7]", "result": 0.47, "unit": "%"}, {"measurement": "Env-spec CD8 (%) IFN-γ+", "setting": "BALB/c mice [3]; [7]", "result": 0.15, "unit": "%"}, {"measurement": "Env-spec CD8 (%) IL2+", "setting": "BALB/c mice [3]; [7]", "result": 0.12, "unit": "%"}]}
